The values below come from patent US7671054B1, “Reverse-turn mimetics and method relating thereto” (Choongwae Pharma Corporation, priority 2001, dated 2010).

One assay relates to HCT116 cells. Nature of the assay: Growth inhibition assay (MTS). The following applies: Homo sapiens, HCT116 cells, 48 hours treatment, MTS, read-out: Growth Inhibition (GI50, uM) HCT116. Format: cell-based. Put shortly:
(§1)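 Cells seeded at 10^4 per well, grown 24 h at 37° C, then exposed to compound at various concentrations for 48 hours. MTS added for 2 h; absorbance at 490 nm gave viability, with cytotoxicity calculated per concentration against pre-treatment reading.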

The next assay relates to SW480 cells. The experiment in a line: Growth inhibition assay (MTS). Format: cell-based. The following applies: Homo sapiens, SW480 cells. Put shortly: as §1
Setting [1] is: SW480, 48 h, Table 5, 48 hours treatment, MTS, read-out: Growth Inhibition (GI50, uM) SW480.
[2] abbreviates: SW480, 48 h, Example 21, 48 hours treatment, MTS, read-out: Growth Inhibition (GI50, uM) SW480.
[3] abbreviates: Table 5, 48 hours treatment, MTS, read-out: Growth Inhibition (GI50, uM) SW480.

Structures are written as SMILES. Read-outs that look alike come from different tables or passages of the source. Bounds are passed on as bounds.

In the case of `C[C@@H](c1ccc(Cl)c2cccnc12)N1CC2N(C(=O)CN(C)N2C(=O)NCc2ccccc2)[C@@H](Cc2ccc(O)cc2)C1=O` (stereo partly drawn) [Compound 166], the GI50 (commonly the concentration giving 50% growth inhibition) stood at 25.2 ± 3.2 µM with HCT116 cells (HCT-116, 48 h, Table 5) and 27.9 ± 4.7 µM in the assay on SW480 cells (setting [1]).
On to `C=CCN1CC(=O)N2[C@@H](Cc3ccc(O)cc3)C(=O)N(Cc3ccc(F)c4scnc34)C[C@@H]2N1C(=O)NCc1ccccc1` [Compound 194], for which the GI50 is 0.2 ± 0.02 µM in the assay on HCT116 cells (HCT-116, 48 h, Table 5) and 0.2 ± 0.02 µM with SW480 cells (setting [1]).
With `C=CCN1CC(=O)N2[C@@H](Cc3ccc(O)cc3)C(=O)N(Cc3cccc4sc(Cl)nc34)C[C@@H]2N1C(=O)NCc1ccccc1` [Compound 187], the GI50 with HCT116 cells (HCT-116, 48 h, Table 5) was determined as 1 ± 0.1 µM; in the assay with SW480 cells (setting [1]) it was 1 ± 0.1 µM.
On to `CC(C)N(C)c1ccccc1CN1C[C@H]2N(C(=O)CN(C)N2C(=O)NCc2ccccc2)[C@@H](Cc2ccc(O)cc2)C1=O` [Compound 30], for which the GI50 in the assay on HCT116 cells (HCT-116, 48 h, Table 5) was found to be 5.4 µM; with SW480 cells (setting [1]), 14.1 µM.
In the same order, the values of `CCN1CC(=O)N2[C@@H](Cc3ccc(O)cc3)C(=O)N(Cc3cccc4cccnc34)C[C@@H]2N1C(=O)NCc1ccccc1` [Compound 93] are 1.1 ± 0.1 µM and 1.9 ± 0.4 µM.
In the same order, the values of `CN(Cc1ccccc1N)c1cccc(CN2C[C@H]3N(C(=O)CN(C)N3C(=O)NCc3ccccc3)[C@@H](Cc3ccc(O)cc3)C2=O)c1` [Compound 65] are 4.7 µM and 7.3 µM.
Regarding `C#CCN1CC(=O)N2[C@@H](Cc3ccc(O)cc3)C(=O)N(Cc3ccc(F)cc3F)C[C@@H]2N1C(=O)NCc1ccccc1` [Compound 116], the GI50 in the assay with HCT116 cells (HCT-116, 48 h, Table 5) was 1.7 ± 0.1 µM; in the assay with SW480 cells (setting [1]), 2.8 ± 0.9 µM.
On to `CN(C)c1ccc(C[C@H]2C(=O)N(Cc3cccc4ccccc34)C[C@H]3N2C(=O)CN(C)N3C(=O)NCc2ccccc2)cc1` [Compound 43], for which the GI50 is 39.1 µM in the assay on HCT116 cells (HCT-116, 48 h, Table 5) and more than 50 µM in the assay with SW480 cells (setting [1]).
Consider `CCCN1CC(=O)N2[C@@H](Cc3ccc(NC=O)cc3)C(=O)N(Cc3ccc(F)cc3F)C[C@@H]2N1C(=O)NCc1ccccc1` [Compound 130], for which the GI50 in the assay with HCT116 cells (HCT-116, 48 h, Table 5) turned out to be 10.7 ± 1.7 µM; in the assay on SW480 cells (setting [1]), 17.3 ± 1.2 µM.
For `CN1CC(=O)N2[C@@H](Cc3ccc(O)cc3)C(=O)N(Cc3cccc4[nH]ncc34)C[C@@H]2N1C(=O)NCc1ccccc1` [Compound 47], the GI50 was determined as 12.2 µM in the assay on HCT116 cells (HCT-116, 48 h, Table 5) and 6.2 µM in the assay on SW480 cells (setting [1]).
For the compound `C=CC[C@@H]1CC(=O)N2[C@H](CN(Cc3cccc4cn[nH]c34)C(=O)[C@@H]2Cc2ccc(O)cc2)N1C(=O)NCc1ccccc1`, the GI50 in the assay with HCT116 cells (HCT-116, 48 h, Example 21) stood at 2.3 µM; with SW480 cells (setting [2]), 2 µM.
Regarding `CN1CC(=O)N2[C@@H](Cc3ccc(O)cc3)C(=O)N(Cc3ccc(F)cc3)C[C@@H]2N1C(=O)NCc1ccccc1` [Compound 12], the GI50 with HCT116 cells (HCT-116, Table 5) worked out at 1.48 µM; in the assay with SW480 cells (setting [3]) it was 2.54 µM.
On to `CN1CC(=O)N2[C@@H](Cc3ccc(O)cc3)C(=O)N(Cc3cccc(C(F)(F)F)c3)C[C@@H]2N1C(=O)NCc1ccccc1` [Compound 14], for which the GI50 in the assay with HCT116 cells (HCT-116, 48 h, Table 5) was 2.1 µM; with SW480 cells (setting [1]) it was 2.7 µM.
In the same order, the values of `C[C@H](c1ccccc1)N1C[C@H]2N(C(=O)CN(C)N2C(=O)NCc2ccccc2)[C@@H](Cc2ccc(O)cc2)C1=O` [Compound 19] are 1.17 µM and 2.66 µM.
Take `CCOP(=O)(CC(=O)Nc1ccc(C[C@H]2C(=O)N(Cc3cccc4ccccc34)C[C@H]3N2C(=O)CN(C)N3C(=O)NCc2ccccc2)cc1)OCC` [Compound 59]: the GI50 in the assay on HCT116 cells (HCT-116, Table 5) was 55.1 ± 33.7 µM; in the assay with SW480 cells (Table 5, the cell prints nM, read-out: Growth Inhibition (GI50) SW480) it was more than 0.05 µM.
For the compound `C=CC[C@@H]1CC(=O)N2[C@H](CN(Cc3cccc(OC)c3OC)C(=O)[C@@H]2Cc2ccc(O)cc2)N1C(=O)NCc1ccccc1`, the GI50 in the assay on HCT116 cells (HCT-116, 48 h, Example 21) was determined as 4.91 µM; in the assay with SW480 cells (setting [2]), 4.1 µM.
Consider `C=CCN1CC(=O)N2[C@@H](Cc3ccc(O)cc3)C(=O)N(Cc3cccc4c3OCCO4)C[C@@H]2N1C(=O)NCc1ccc(Cl)c(Cl)c1` [Compound 174], for which the GI50 in the assay with HCT116 cells (HCT-116, 48 h, Table 5) was determined as 1.8 ± 0.1 µM; with SW480 cells (setting [1]), 1.9 ± 0.2 µM.
Take `CN1CC(=O)N2C(CN(Cc3ccccc3Cl)C(=O)[C@@H]2Cc2ccc(O)cc2)N1C(=O)NCc1ccccc1` (stereo partly drawn) [Compound 15]: the GI50 in the assay with HCT116 cells (HCT-116, 48 h, Table 5) was determined as 1.34 µM; with SW480 cells (setting [1]) it was 1.68 µM.
Consider `C=CCOC(=O)NCCCC[C@H]1C(=O)N(Cc2ccc(Cl)c(Cl)c2)C[C@H]2N1C(=O)CN(C)N2C(=O)NCc1ccccc1` [Compound 141], for which the GI50 with HCT116 cells (HCT-116, 48 h, Table 5) is 21 ± 2.6 µM; with SW480 cells (setting [1]) it was 35 ± 11 µM.
In the same order, the values of `C=CCN1CC(=O)N2C(Cc3ccc(O)cc3)C(=O)N(Cc3ccc(F)cc3F)CC2N1C(=O)NCc1ccccc1` (stereo not drawn) [Compound 140] are 1.7 ± 0.1 µM and 1.6 ± 0.5 µM.
On to `C=CCN1CC(=O)N2[C@@H](Cc3ccc(O)cc3)C(=O)N(Cc3cccc(OC(F)(F)F)c3)C[C@@H]2N1C(=O)NCc1ccccc1` [Compound 176], for which the GI50 in the assay with HCT116 cells (HCT-116, 48 h, Table 5) amounted to 1.7 ± 0.1 µM; in the assay on SW480 cells (setting [1]), 1.7 ± 0.2 µM.
In the same order, the values of `CN(C)c1cc(Cl)ccc1CN1C[C@H]2N(C(=O)CN(C)N2C(=O)NCc2ccccc2)[C@@H](Cc2ccc(O)cc2)C1=O` [Compound 24] are 1.67 µM and 13.8 µM.
Regarding `C=CCN1CC(=O)N2[C@@H](Cc3ccc(OP(=O)(O)O)cc3)C(=O)N(Cc3ccc4c(c3)OCCO4)C[C@@H]2N1C(=O)NCc1ccccc1` [Compound 182], the GI50 came out at 0.8 ± 0.1 µM in the assay on HCT116 cells (HCT-116, Table 5) and 1 ± 0.1 µM in the assay on SW480 cells (setting [3]).
With `CN1CC(=O)N2[C@@H](Cc3ccc(O)cc3)C(=O)N(Cc3cccc(N4CCCC4)c3)C[C@@H]2N1C(=O)NCc1ccccc1` [Compound 40], the GI50 was 5.8 ± 0.4 µM in the assay with HCT116 cells (HCT-116, 48 h, Table 5) and 6.4 ± 0.5 µM with SW480 cells (setting [1]).
`C=CCN1CC(=O)N2[C@@H](Cc3ccc(O)cc3)C(=O)N(Cc3cccc4cccnc34)C[C@@H]2N1C(=O)NCc1ccc(Cl)c(Cl)c1` [Compound 169]: the GI50 in the assay with HCT116 cells (HCT-116, 48 h, Table 5) is 1 ± 0.2 µM; in the assay with SW480 cells (setting [1]) it was 0.8 ± 0.1 µM.
For `C=CCN1CC(=O)N2[C@@H](Cc3ccc(OP(=O)(O)O)cc3)C(=O)N(Cc3cccc4c3OCCN4C)C[C@@H]2N1C(=O)NCc1ccccc1` [Compound 139], the GI50 with HCT116 cells (HCT-116, Table 5) worked out at 1 ± 0.2 µM; in the assay with SW480 cells (setting [3]) it was 1.2 ± 0.1 µM.
As to `C=CCN1CC(=O)N2[C@@H](Cc3ccc(O)cc3)C(=O)N(Cc3cccc(N(C)C(=O)CCCCC)c3)C[C@@H]2N1C(=O)NCc1ccccc1` [Compound 164], the GI50 amounted to 2.9 ± 0.4 µM with HCT116 cells (HCT-116, 48 h, Table 5) and 3 ± 0.3 µM in the assay with SW480 cells (setting [1]).
On to `CN1CC(=O)N2[C@@H](Cc3ccc(O)cc3)C(=O)N(Cc3cccc4c3cnn4Cc3ccccc3N)C[C@@H]2N1C(=O)NCc1ccccc1` [Compound 63], for which the GI50 stood at 1.3 ± 0.1 µM in the assay with HCT116 cells (HCT-116, 48 h, Table 5) and 18.8 ± 4.8 µM in the assay on SW480 cells (setting [1]).
For the compound `C#CCN1CC(=O)N2[C@@H](Cc3ccc(O)cc3)C(=O)N(Cc3ccc(Cl)c(N4CCOCC4)c3)C[C@@H]2N1C(=O)NCc1ccccc1` [Compound 112], the GI50 with HCT116 cells (HCT-116, 48 h, Table 5) is 4.7 ± 0.3 µM; in the assay on SW480 cells (setting [1]), 5.1 ± 0.5 µM.
For the compound `CN(C)c1ccccc1CN1C[C@H]2N(C(=O)CN(C)N2C(=O)NCc2ccccc2)[C@@H](Cc2ccc(O)cc2)C1=O` [Compound 22], the GI50 was 3.26 µM with HCT116 cells (HCT-116, 48 h, Table 5) and 6.58 µM in the assay with SW480 cells (setting [1]).
In the same order, the values of `Cc1cc(C)c(N(C)C)c(CN2C[C@H]3N(C(=O)CN(C)N3C(=O)NCc3ccccc3)[C@@H](Cc3ccc(O)cc3)C2=O)c1` [Compound 28] are 5.47 µM and 3.57 µM.
As to `CC(C)N(C)c1cccc([C@@H](C)N2C[C@H]3N(C(=O)CN(C)N3C(=O)NCc3ccccc3)[C@@H](Cc3ccc(O)cc3)C2=O)c1` [Compound 42], the GI50 worked out at 10.8 µM in the assay with HCT116 cells (HCT-116, 48 h, Table 5) and 24.7 µM in the assay with SW480 cells (setting [1]).
Take `C=CCN1CC(=O)N2[C@@H](Cc3ccc(O)cc3)C(=O)N(Cc3ccc4c(c3)OCCO4)C[C@@H]2N1C(=O)NCc1ccccc1` [Compound 157]: the GI50 in the assay with HCT116 cells (HCT-116, 48 h, Table 5) is 1.2 ± 0.1 µM; in the assay with SW480 cells (setting [1]) it was 1 ± 0.2 µM.
